# Species on record: Rattus norvegicus
# Assay: Open TG-GATES - Regimen: Single
# Type: toxicity, organism-based, Sprague-Dawley
# Design: regimen Single, gender Male, age 6 weeks
# Conditions: in vivo, po, route gavage; for TC / TG / TP / gamma-GTP / A/G / ALP / ALT / AST / BUN / CRE / Ca / Cl / GLC / IP / K / LDH / Na / PL / RALB: tissue Plasma; for APTT / Bas / Eos / Fbg / Hb / Ht / Lym / MCH / MCHC / MCV / Mono / Neu / PT / Plat / RBC / Ret / WBC: tissue Blood; for KIDNEY_L / KIDNEY_R / KIDNEY_TOTAL: tissue Kidney; for LIVER: tissue Liver
# [1] = 300 mg/kg, 24 h, dose level Low
# [2] = 1000 mg/kg, 3 h, dose level Middle
# [3] = 1000 mg/kg, 6 h, dose level Middle
# [4] = 1000 mg/kg, 9 h, dose level Middle
# [5] = 1000 mg/kg, 24 h, dose level Middle
smiles,measurement,setting,value
O=C(O)c1ccccc1Nc1ccccc1 [FENAMIC ACID],TC,[1],74.8 mg/dL
same,TG,[1],88 mg/dL
same,TP,[1],5.6 g/dL
same,gamma-GTP,[1],1 IU/L
same,TERMINAL_BW,[2],208.9 g
same,APTT,[2],17.2 s
same,Bas,[2],0.8%
same,Eos,[2],0.6%
same,Fbg,[2],253.8 mg/dL
same,Hb,[2],13.4 g/dL
same,Ht,[2],40.2%
same,Lym,[2],71.4%
same,MCH,[2],20.5 pg
same,MCHC,[2],33.5%
same,MCV,[2],61.1 fL
same,Mono,[2],2.8%
same,Neu,[2],24.4%
same,PT,[2],14.1 s
same,Plat,[2],115 x10_4/uL
same,RBC,[2],657.4 x10_4/ul
same,Ret,[2],8%
same,WBC,[2],93.3 x10_2/uL
same,KIDNEY_L,[2],0.9 g
same,KIDNEY_R,[2],0.9 g
same,KIDNEY_TOTAL,[2],1.8 g
same,LIVER,[2],7.8 g
same,A/G,[2],0.9
same,ALP,[2],1837.8 IU/L
same,ALT,[2],38.4 IU/L
same,AST,[2],75.4 IU/L
same,BUN,[2],9.6 mg/dL
same,CRE,[2],0.1 mg/dL
same,Ca,[2],11 mg/dL
same,Cl,[2],105.2 meq/L
same,GLC,[2],169.2 mg/dL
same,IP,[2],10.3 mg/dL
same,K,[2],4 meq/L
same,LDH,[2],71.8 IU/L
same,Na,[2],144 meq/L
same,PL,[2],96.4 mg/dL
same,RALB,[2],2.5 g/dL
same,TC,[2],49 mg/dL
same,TG,[2],37 mg/dL
same,TP,[2],5.4 g/dL
same,gamma-GTP,[2],1 IU/L
same,TERMINAL_BW,[3],203 g
same,APTT,[3],17 s
same,Bas,[3],0.8%
same,Eos,[3],1%
same,Fbg,[3],286.4 mg/dL
same,Hb,[3],13.7 g/dL
same,Ht,[3],40.4%
same,Lym,[3],66.6%
same,MCH,[3],21.2 pg
same,MCHC,[3],34%
same,MCV,[3],62.4 fL
same,Mono,[3],3.2%
same,Neu,[3],28.8%
same,PT,[3],14.4 s
same,Plat,[3],112.9 x10_4/uL
same,RBC,[3],646.6 x10_4/ul
same,Ret,[3],7.7%
same,WBC,[3],98.8 x10_2/uL
same,KIDNEY_L,[3],0.9 g
same,KIDNEY_R,[3],0.9 g
same,KIDNEY_TOTAL,[3],1.8 g
same,LIVER,[3],7.4 g
same,A/G,[3],0.9
same,ALP,[3],1734.6 IU/L
same,ALT,[3],37 IU/L
same,AST,[3],77.6 IU/L
same,BUN,[3],11.4 mg/dL
same,CRE,[3],0.1 mg/dL
same,Ca,[3],11.1 mg/dL
same,Cl,[3],107 meq/L
same,GLC,[3],128.4 mg/dL
same,IP,[3],10.8 mg/dL
same,K,[3],3.9 meq/L
same,LDH,[3],73.4 IU/L
same,Na,[3],146.2 meq/L
same,PL,[3],105.6 mg/dL
same,RALB,[3],2.7 g/dL
same,TC,[3],53 mg/dL
same,TG,[3],37 mg/dL
same,TP,[3],5.8 g/dL
same,gamma-GTP,[3],1.2 IU/L
same,TERMINAL_BW,[4],207.8 g
same,APTT,[4],14.8 s
same,Bas,[4],0.4%
same,Eos,[4],0.8%
same,Fbg,[4],281 mg/dL
same,Hb,[4],13.9 g/dL
same,Ht,[4],41.1%
same,Lym,[4],61.8%
same,MCH,[4],21.2 pg
same,MCHC,[4],33.8%
same,MCV,[4],62.8 fL
same,Mono,[4],3%
same,Neu,[4],33.8%
same,PT,[4],14.6 s
same,Plat,[4],111.6 x10_4/uL
same,RBC,[4],655.6 x10_4/ul
same,Ret,[4],8.2%
same,WBC,[4],80.5 x10_2/uL
same,KIDNEY_L,[4],1 g
same,KIDNEY_R,[4],0.9 g
same,KIDNEY_TOTAL,[4],1.9 g
same,LIVER,[4],7.4 g
same,A/G,[4],0.9
same,ALP,[4],1965.8 IU/L
same,ALT,[4],44.6 IU/L
same,AST,[4],75.4 IU/L
same,BUN,[4],13.8 mg/dL
same,CRE,[4],0.1 mg/dL
same,Ca,[4],11.1 mg/dL
same,Cl,[4],107.8 meq/L
same,GLC,[4],142 mg/dL
same,IP,[4],10.9 mg/dL
same,K,[4],4 meq/L
same,LDH,[4],68.6 IU/L
same,Na,[4],146.2 meq/L
same,PL,[4],102.8 mg/dL
same,RALB,[4],2.6 g/dL
same,TC,[4],45.8 mg/dL
same,TG,[4],29 mg/dL
same,TP,[4],5.7 g/dL
same,gamma-GTP,[4],1 IU/L
same,TERMINAL_BW,[5],210.6 g
same,APTT,[5],14.3 s
same,Bas,[5],0.8%
same,Eos,[5],0.8%
same,Fbg,[5],388 mg/dL
same,Hb,[5],13.5 g/dL
same,Ht,[5],40.1%
same,Lym,[5],70.6%
same,MCH,[5],21.3 pg
same,MCHC,[5],33.8%
same,MCV,[5],62.9 fL
same,Mono,[5],3%
same,Neu,[5],24.8%
same,PT,[5],15 s
same,Plat,[5],114.1 x10_4/uL
same,RBC,[5],637.8 x10_4/ul
same,Ret,[5],7.1%
same,WBC,[5],120.4 x10_2/uL
same,KIDNEY_L,[5],1 g
same,KIDNEY_R,[5],1 g
same,KIDNEY_TOTAL,[5],2 g
same,LIVER,[5],8.4 g
same,A/G,[5],0.9
same,ALP,[5],2284.2 IU/L
same,ALT,[5],41.2 IU/L
same,AST,[5],66 IU/L
same,BUN,[5],16.4 mg/dL
same,CRE,[5],0.2 mg/dL
same,Ca,[5],11.4 mg/dL
same,Cl,[5],106.2 meq/L
same,GLC,[5],164.6 mg/dL
same,IP,[5],8.5 mg/dL
same,K,[5],3.7 meq/L
same,LDH,[5],142 IU/L
same,Na,[5],145.4 meq/L
same,PL,[5],104.6 mg/dL
same,RALB,[5],2.6 g/dL
same,TC,[5],47.4 mg/dL
same,TG,[5],46.2 mg/dL
